Measured values reported in ChEMBL document CHEMBL1201862, “PubChem BioAssay data set” (2004).
Activity calls are given as the source filed them. For most assays here, no stated cut-off is given here; in the data, actives have a measured IC50 and inactives only a lower limit.

Legend:
[1] = target: T1, Sentrin-specific protease 8 (Homo sapiens, UniProt Q96LD8); assay: inhibition of human SENP8 cleavage activity – biochemical, luminescence, SAR follow-up (AID 504501); assay type: functional
T1 sequence (Q96LD8 whole entry): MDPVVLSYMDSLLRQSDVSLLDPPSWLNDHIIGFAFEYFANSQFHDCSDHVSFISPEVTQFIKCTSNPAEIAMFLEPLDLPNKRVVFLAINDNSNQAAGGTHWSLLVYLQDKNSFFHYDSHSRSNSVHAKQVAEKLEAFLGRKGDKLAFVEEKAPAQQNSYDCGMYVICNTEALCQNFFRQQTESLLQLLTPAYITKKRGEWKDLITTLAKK

Caspase-3 [2] = target: T2, Caspase-3 (Homo sapiens, UniProt P42574); assay: SAR Analysis of small molecule inhibitors of Sentrin-specific proteases (SENPs) using a Caspase-3 Selectivity assay. [Related pubchem assays (depositor defined):AID2540, AID2599, AID434973, AID489001]; assay type: functional
T2 sequence (P42574 whole entry): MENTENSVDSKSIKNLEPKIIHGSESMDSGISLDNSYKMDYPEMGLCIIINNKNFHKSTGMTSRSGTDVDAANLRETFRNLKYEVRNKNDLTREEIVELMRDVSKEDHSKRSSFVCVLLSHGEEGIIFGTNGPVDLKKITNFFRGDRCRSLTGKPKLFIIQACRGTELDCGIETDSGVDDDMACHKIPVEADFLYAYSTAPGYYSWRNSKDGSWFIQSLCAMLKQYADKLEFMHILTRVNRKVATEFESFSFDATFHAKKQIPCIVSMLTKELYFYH

[3] = target: T3, Sentrin-specific protease 6 (Homo sapiens, UniProt Q9GZR1); assay: SAR Analysis of small molecule inhibitors of Sentrin-specific protease 6 (SENP6) using a Luminescent assay. [Related pubchem assays (depositor defined):AID2582, AID2599]; assay type: functional
T3 sequence (Q9GZR1 whole entry): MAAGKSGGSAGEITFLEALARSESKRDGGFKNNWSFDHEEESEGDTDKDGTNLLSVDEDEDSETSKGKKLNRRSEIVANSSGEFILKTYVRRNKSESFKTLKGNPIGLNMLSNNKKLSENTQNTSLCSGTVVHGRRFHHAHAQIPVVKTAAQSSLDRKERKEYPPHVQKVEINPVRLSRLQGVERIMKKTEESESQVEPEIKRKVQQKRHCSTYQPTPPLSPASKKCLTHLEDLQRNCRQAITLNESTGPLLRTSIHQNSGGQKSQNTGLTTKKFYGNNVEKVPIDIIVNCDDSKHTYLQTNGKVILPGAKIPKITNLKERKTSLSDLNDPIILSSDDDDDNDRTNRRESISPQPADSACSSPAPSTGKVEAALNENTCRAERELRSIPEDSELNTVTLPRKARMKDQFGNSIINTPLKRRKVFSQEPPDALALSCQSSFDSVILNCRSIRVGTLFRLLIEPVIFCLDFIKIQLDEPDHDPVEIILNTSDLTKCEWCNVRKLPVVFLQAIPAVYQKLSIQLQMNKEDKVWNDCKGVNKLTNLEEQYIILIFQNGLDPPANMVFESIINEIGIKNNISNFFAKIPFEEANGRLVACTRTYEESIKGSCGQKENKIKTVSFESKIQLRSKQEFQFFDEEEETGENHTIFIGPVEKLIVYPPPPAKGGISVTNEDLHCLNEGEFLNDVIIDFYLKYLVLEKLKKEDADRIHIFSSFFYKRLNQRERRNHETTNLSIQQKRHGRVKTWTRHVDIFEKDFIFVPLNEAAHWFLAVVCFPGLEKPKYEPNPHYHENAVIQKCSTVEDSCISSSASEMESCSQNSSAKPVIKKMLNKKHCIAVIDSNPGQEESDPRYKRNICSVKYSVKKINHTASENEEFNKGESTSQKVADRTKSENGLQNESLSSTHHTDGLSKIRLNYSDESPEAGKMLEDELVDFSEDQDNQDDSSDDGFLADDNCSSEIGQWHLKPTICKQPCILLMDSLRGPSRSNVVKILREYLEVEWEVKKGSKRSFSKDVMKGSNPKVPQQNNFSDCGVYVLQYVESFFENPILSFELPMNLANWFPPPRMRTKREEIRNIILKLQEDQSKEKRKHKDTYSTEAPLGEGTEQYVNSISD

[4] = target: T4, Sentrin-specific protease 7 (Homo sapiens, UniProt Q9BQF6); assay: inhibition of human SENP7 cleavage activity – biochemical, luminescence, SAR follow-up (AID 504497); assay type: functional
T4 sequence (Q9BQF6 whole entry): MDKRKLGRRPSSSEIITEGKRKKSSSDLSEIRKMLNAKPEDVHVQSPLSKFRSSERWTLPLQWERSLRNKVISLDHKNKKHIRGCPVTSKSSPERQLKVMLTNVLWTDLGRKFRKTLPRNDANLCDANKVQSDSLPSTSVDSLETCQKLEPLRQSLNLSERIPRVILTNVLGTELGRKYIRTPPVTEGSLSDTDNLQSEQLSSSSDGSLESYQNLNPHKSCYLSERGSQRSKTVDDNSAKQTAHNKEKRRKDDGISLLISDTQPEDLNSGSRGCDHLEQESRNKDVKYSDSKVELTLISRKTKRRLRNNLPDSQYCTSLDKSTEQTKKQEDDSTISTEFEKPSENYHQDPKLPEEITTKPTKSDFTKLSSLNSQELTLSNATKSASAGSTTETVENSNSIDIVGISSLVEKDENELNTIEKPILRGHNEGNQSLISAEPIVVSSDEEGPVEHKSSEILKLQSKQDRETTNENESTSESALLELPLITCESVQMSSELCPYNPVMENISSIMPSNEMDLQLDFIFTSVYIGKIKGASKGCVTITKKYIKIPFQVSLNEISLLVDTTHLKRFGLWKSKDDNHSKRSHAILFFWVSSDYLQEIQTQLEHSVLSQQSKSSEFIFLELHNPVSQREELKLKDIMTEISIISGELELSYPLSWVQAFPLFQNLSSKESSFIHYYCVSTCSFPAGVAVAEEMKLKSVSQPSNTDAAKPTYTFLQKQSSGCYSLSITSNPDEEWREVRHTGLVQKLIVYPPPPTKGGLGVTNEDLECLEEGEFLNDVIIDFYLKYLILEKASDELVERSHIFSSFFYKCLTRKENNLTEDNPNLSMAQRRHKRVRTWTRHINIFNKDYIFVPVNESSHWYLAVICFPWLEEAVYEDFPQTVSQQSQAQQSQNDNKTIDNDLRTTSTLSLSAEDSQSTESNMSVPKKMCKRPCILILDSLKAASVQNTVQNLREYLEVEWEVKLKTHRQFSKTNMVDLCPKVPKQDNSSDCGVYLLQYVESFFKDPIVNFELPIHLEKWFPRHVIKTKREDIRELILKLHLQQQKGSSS

INS1 = assay: suppression of NO production in INS-1E cells – cell-based, Griess absorbance, dry powder, set 2, dose response (AID 488868); assay type: functional; settings: Rattus norvegicus
[5] = target: T1, Sentrin-specific protease 8; assay: inhibition of sentrin protease 8 – biochemical, luminescence, set 2, SAR follow-up (AID 588601); assay type: functional
Caspase-3 [6] = target: T2, Caspase-3; assay: inhibition of recombinant caspase-3 activity – biochemical, luminescence, set 2, selectivity assay for SENP protease inhibitor project, SAR follow-up (AID 588599); assay type: functional
[7] = target: T3, Sentrin-specific protease 6; assay: inhibition of human SENP6 catalytic domain – biochemical, luminescence, set 2, SAR follow-up (AID 588598); assay type: functional
[8] = target: T4, Sentrin-specific protease 7; assay: inhibition of human SENP7 cleavage activity – biochemical, luminescence, set 2, SAR follow-up (AID 588600); assay type: functional
HEK293 [9] = assay: optical interference in Abeta FP readout, dose response, artefact control for IDE activator project, biochemical, fluorescence polarization (AID 588442); assay type: functional, cell-based; settings: Homo sapiens
Insulin-degrading enzyme [10] = target: T5, Insulin-degrading enzyme (Homo sapiens, UniProt P14735); assay: recombinant IDE activation, cell-free – biochemical, fluorescence polarization, counter-screen for IDE activator project, dose response (AID 588681)
T5 sequence (P14735 whole entry): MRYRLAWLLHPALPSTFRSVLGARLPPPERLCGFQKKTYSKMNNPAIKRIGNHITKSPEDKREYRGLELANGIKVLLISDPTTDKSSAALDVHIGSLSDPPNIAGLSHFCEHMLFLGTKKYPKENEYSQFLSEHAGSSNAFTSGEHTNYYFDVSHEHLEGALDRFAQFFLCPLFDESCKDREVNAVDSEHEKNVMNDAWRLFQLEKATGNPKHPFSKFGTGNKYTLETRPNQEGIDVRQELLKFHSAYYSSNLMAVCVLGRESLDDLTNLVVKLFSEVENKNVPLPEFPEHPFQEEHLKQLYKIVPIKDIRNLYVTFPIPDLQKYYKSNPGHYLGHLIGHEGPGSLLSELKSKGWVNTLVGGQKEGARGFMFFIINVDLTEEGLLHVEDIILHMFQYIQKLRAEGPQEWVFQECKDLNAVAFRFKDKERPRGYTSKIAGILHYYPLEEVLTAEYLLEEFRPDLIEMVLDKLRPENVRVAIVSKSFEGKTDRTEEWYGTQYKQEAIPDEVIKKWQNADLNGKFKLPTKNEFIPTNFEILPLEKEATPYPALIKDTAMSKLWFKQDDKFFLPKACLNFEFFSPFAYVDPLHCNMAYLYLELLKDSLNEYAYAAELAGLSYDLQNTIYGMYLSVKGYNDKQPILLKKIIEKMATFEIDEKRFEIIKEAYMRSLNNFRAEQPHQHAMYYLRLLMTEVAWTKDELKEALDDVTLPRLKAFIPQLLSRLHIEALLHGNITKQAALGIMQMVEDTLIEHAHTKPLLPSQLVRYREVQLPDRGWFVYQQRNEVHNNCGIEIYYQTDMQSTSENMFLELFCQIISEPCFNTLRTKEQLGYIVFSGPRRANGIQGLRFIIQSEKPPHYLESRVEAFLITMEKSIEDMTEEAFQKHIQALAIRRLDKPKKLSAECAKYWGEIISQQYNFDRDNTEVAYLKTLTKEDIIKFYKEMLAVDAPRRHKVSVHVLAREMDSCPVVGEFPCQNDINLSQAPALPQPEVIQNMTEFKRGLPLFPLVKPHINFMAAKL

[11] = Luminescence Cell-Based Dose Retest to Confirm Inhibitors of Cancer Stem Cells. [Related pubchem assays (depositor defined):AID2717, AID2721]; assay type: functional; settings: Homo sapiens
Insulin-degrading enzyme [12] = target: T5, Insulin-degrading enzyme; assay: cellular IDE activation of Abeta substrate cleavage – fluorescence polarization, HEK cells, dose response (AID 588439); assay type: functional, cell-based
HEK293 [13] = assay: membrane integrity loss in HEK cells – cell-based, fluorescence, cytotoxicity control for IDE activator project, dose response (AID 588440); assay type: functional; settings: Homo sapiens;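 further: cytotoxicity by LDH release measuring loss of membrane integrity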

SMILES: CCC(=O)Nc1ccc2oc(-c3ccc(Cl)cc3)nc2c1
- IC50 [1]: 1.76 µM (active)
- IC50 (Caspase-3 [2]): 2.27 µM (active)
- IC50 [3]: 1.81 µM (active)
- IC50 [4]: 1.31 µM (active)

SMILES: C[C@@H]1CN([C@@H](C)CO)C(=O)c2cccc(NC(=O)Nc3cccc4ccccc34)c2O[C@H]1CN(C)S(=O)(=O)c1cccs1
- AC50 (INS1): 206 µM (active)

SMILES: O=C1CN(C(=O)C(=O)c2c[nH]c3ccccc23)c2ccccc2N1
- IC50 [5]: > 99 µM (inactive)
- IC50 (Caspase-3 [6]): > 99 µM (inactive)
- IC50 [7]: > 99 µM (inactive)
- IC50 [8]: > 99 µM (inactive)

SMILES: C=CCN1C(=O)/C(=C2\C(=O)Nc3ccccc32)S/C1=N/c1ccc(O)cc1
- EC50 (HEK293 [9]): > 54.7 µM (inactive)
- EC50 (Insulin-degrading enzyme [10]): > 54.7 µM (inactive)
- AC50 [11]: 4.14 µM (active)
- EC50 (Insulin-degrading enzyme [12]): 16.6 µM (inactive)
- IC50 (HEK293 [13]): 26.6 µM (inactive)
